Source: US12156850B2, “Preservative removal from eye drops containing hydrophilic drugs” (University of Florida Research Foundation, Inc., priority 2017, dated 2024)

Columns and labels:
[1] = Equilibrium interfacial tension calibration of BAK solutions, Langmuir adsorption isotherm fit; type: physicochemical; conditions: Langmuir fit of b275
Procedure: The dynamic interfacial tension of filtered ophthalmic formulations was measured via pendant drop tensiometry using the commercially automated instrument named Kruss DSA 100 (Drop Shape Analyzer). A pendant drop is a drop of the filtered formulation was suspended at the tip of a 14-gauge needle with air as the surrounding phase. The silhouette of the axisymmetric formulation drop is imaged at regular time intervals and iteratively fit to Young-Laplace equation to measure its dynamic surface tension as a function of time. This robust method is commonly employed due to a high-speed and precise estimation of interfacial tension based on drop curvature and concentration of the formulation. […]
[formula] where Γeq is the equilibrium molar surface concentration, Γ∞ is the maximum molar surface concentration, C is the bulk concentration of the aqueous formulation, α and β are adsorption and desorption constants, R is the ideal gas constant, γO is the interfacial tension of the pure solvent (PBS), γ is the equilibrium interfacial tension recorded after 12 minutes of interfacial surface generation, and T is the operating temperature for acquisition of interfacial tension of drug/BAK formulation (recorded at room temperature, 298 K). […]

[2] = Procedure: The partition coefficients of hydrophilic drugs and BAK in p-HEMA, p-HEMA/t-butyl methacrylate, and p-HEMA/TRIS/t-butyl methacrylate particles were obtained by drug uptake studies. The mass of drug or BAK partitioned into p-HEMA hydrogel matrix was determined by monitoring the amount of drug or BAK lost in the concentrated aqueous drug/PBS or BAK/PBS loading solutions. The amount of drug loss from the concentrated aqueous phase was quantified by time-dependent absorbance measurements using UV-Vis spectrophotometry in a broad spectral range. […]
Time-dependent equilibrium interfacial tension measured via pendant drop tensiometry can be used to quantify the amount of BAK loss from the concentrated aqueous phase. […]
The partition coefficient of BAK in p-HEMA and p-HEMA/Tert-butyl methacrylate particle matrices were obtained by uptake studies. […] The mass of BAK partitioned in the p-HEMA and p-HEMA/TBM particle matrix was determined by monitoring the amount of BAK lost in the concentrated aqueous BAK/PBS loading solutions. The amount of BAK lost from the concentrated aqueous phase was quantified by time-dependent absorbance measurements using UV-Vis spectrophotometry (Genesys™ 10 UV, Thermo Spectronic, Rochester, NY, USA) over a wavelength range of 190-500 nm. […]

## Benzalkonium chloride [BAK]
[1]
  Γ∞ (maximum surface coverage): 0.003309 mol/m^2
  β/α (ratio of kinetic rate constants): 462.14 m^3/mol

## poly(hydroxyethyl methacrylate) [p-HEMA]
[2]
  partition coefficient for BAK: 100-500
